Data taken from patent publication US11185100B2 (priority 2014, dated 2021).

How the values were obtained:
T1R1/T1R3 receptor = T1R1/T1R3 receptor (Felis catus, UniProt E3UMS2); test: Activation of T1R1/T1R3 receptor by transmembrane compounds alone or with alanine, IMP, GMP, phenylalanine; HEK293 cells, calcium fluorescence (Example 5); assay type: cell-based, cat; settings: for Max resp % of IMP +Alanine (20 mM): relative to IMP; for Thres +Alanine (20 mM) / Thres +IMP (0.2 mM): threshold concentration; for Max resp % of Ala +IMP (0.2 mM): relative to Ala; for Activity: Table 18, all transmembrane compounds tested, active / N/A (not active)
Excerpt: (§1) Methods: HEK293 cells that stably express T1R3 and inducibly express T1R1 were exposed to transmembrane compounds alone or in combination with one or more amino acids and/or one or more nucleotides to activate the umami receptor. Activation of the T1R1/T1R3 receptor was detected by a change in intracellular calcium levels using a calcium sensitive fluorescent dye. Cells that express T1R3 but not T1R1 were used as a control. A FLIPR® Tetra or a FlexStation® 3 was used for data capture.
In each experiment, serial dilutions of up to 10 mM of the transmembrane compound were added to the T1R1/T1R3-expressing cells.

cat T1R1/T1R3 receptor = cat T1R1/T1R3 receptor (Felis catus, UniProt E3UMS2); test: cell-based; assay type: cell-based
Excerpt: as §1, with “nucleotide derivatives” for “transmembrane compounds”, “dye and/or a luminescent reporter system.” for “dye.”

SMILES	+Alanine (20 mM) Max resp % of IMP (T1R1/T1R3 receptor)	+Alanine (20 mM) Max resp ΔF/F (T1R1/T1R3 receptor)	+Alanine (20 mM) Thres (T1R1/T1R3 receptor)	Max resp % of IMP +Alanine (20 mM) (T1R1/T1R3 receptor)	Thres +Alanine (20 mM) (T1R1/T1R3 receptor)	+IMP (0.2 mM) Max resp % of Ala (T1R1/T1R3 receptor)	Max resp ΔF/F +IMP (0.2 mM) (T1R1/T1R3 receptor)	Max resp % of Ala +IMP (0.2 mM) (T1R1/T1R3 receptor)	Thres +IMP (0.2 mM) (T1R1/T1R3 receptor)	Activity (T1R1/T1R3 receptor)	activation of T1R1/T1R3 by the transmembrane compound alone (in words) (T1R1/T1R3 receptor; compound alone)	Activity (cat T1R1/T1R3 receptor)	Max resp. (ΔF/F) (cat T1R1/T1R3 receptor)	Threshold (cat T1R1/T1R3 receptor)	Max. resp. % of IMP (cat T1R1/T1R3 receptor; hek293 cells)	EC50 (cat T1R1/T1R3 receptor; in the presence of 20 mM alanine, read-out: EC50- with Ala)
COc1ccc(/C=C/C(=O)NC2CCCCC2C)cc1 (centres unmarked) [(E)-3-(4-methoxyphenyl)-N-(2-methylcyclohexyl) acrylamide]	63.2 % of IMP	0.785 ΔF/F	3 mM	63.2%	3 mM	144.0 % of Ala	1.7725 ΔF/F	144.0%	0.3 mM	active						
COc1cc(C(=O)NC(C(N)=O)c2ccccc2)cc(Cl)c1OC (centres unmarked) [N-(2-amino-2-oxo-1-phenylethyl)-3-chloro-4,5-dimethoxybenzamide]						49.4 % of Ala	0.415 ΔF/F	49.4%	0.17 mM	active	failed to activate					
CCC(CC)NC(=O)c1ccc(OC)c(OC)c1 [3,4-dimethoxy-N-(pentan-3-yl)benzamide]	43.9 % of IMP	0.545 ΔF/F	0.3 mM	43.9%	0.3 mM	81.0 % of Ala	0.9975 ΔF/F	81.0%	0.5 mM	active						
COC(=O)C(NC(=O)/C=C/c1cccs1)C(C)C (centres unmarked) [(E)-methyl 3-methyl-2-(3-(thiophen-2-yl)acrylamido)butanoate]	9.5 % of IMP	0.1175 ΔF/F	10 mM	9.5%	10 mM	59.9 % of Ala	0.7375 ΔF/F	59.9%	1 mM	active						
CCC(CC)NC(=O)c1ccc(Br)o1 [5-bromo-N-(pentan-3-yl)furan-2-carboxamide]	126.8 % of IMP	1.575 ΔF/F	1 mM	126.8%	1 mM	149.6 % of Ala	1.8425 ΔF/F	149.6%	0.3 mM	active						
O=C(NCCc1ccccc1)C(=O)NCc1cccnc1 [N1-phenethyl-N2-(pyridin-3-ylmethyl)oxalamide]				30.2%	1 mM		0.7625 ΔF/F	61.9%	0.1 mM	active						
CCC(CC)NC(=O)c1ccc2c(c1)OCCO2 [N-(pentan-3-yl)-2,3-dihydrobenzo[b][1,4]dioxine-6-carboxamide]	25.2 % of IMP	0.3125 ΔF/F	0.3 mM	25.2%	0.3 mM	70.9 % of Ala	0.8725 ΔF/F	70.9%	0.075 mM	active						
CCC(CC)NC(=O)c1ccc(C)c(C)c1 [3,4-dimethyl-N-(pentan-3-yl)benzamide; N-(1-ethylpropyl)-3,4-dimethylbenzamide]	97.8 % of IMP	1.2150 ΔF/F	3 mM			125.7 % of Ala										
CCCC(C)NC(=O)/C=C/c1ccc(OC)c(OC)c1 (centres unmarked) [(E)-3-(3,4-dimethoxyphenyl)-N-(pentan-2-yl)acrylamide]				35.2%	1 mM		1.07 ΔF/F	86.9%	0.55 mM	active						
Nc1ncnc2c1ncn2[C@H]1CC(OP(=O)(O)O)[C@@H](COP(=O)(O)O)O1 (stereo in doubt) [2′-Deoxyadenosine-3′,5′-O-bisphosphate, 2′-deoxyadenosine-3′, 5′-O-bisphosphate]												active	0.8 ΔF/F	0.005 mM	76.4 % of IMP	20 µM
